Experimental data from US12180187B2, “1-phenyl-5-azinylpyrazolyl-3-oxyalkyl acids and their use for controlling unwanted plant growth” (BAYER AKTIENGESELLSCHAFT, priority 2019, dated 2024).

Experiments:
ALOMY [1] = experiment: Pre-emergence action against ALOMY, 1280 g/ha; assay type: in vivo, Alopecurus myosuroides; settings: visual scoring after about 3 weeks vs untreated controls, 100% = plants have died, 0% = like control plants
In short: (§1)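 Compound applied as WP or EC in aqueous spray (0.5% additive, 600 L/ha) to the surface of sandy loam covering freshly sown seeds. After about 3 weeks under good greenhouse conditions, damage is given as visual percentage, 100% meaning plant death.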

DIGSA [2] = experiment: Pre-emergence action against DIGSA, 1280 g/ha; assay type: in vivo, Digitaria sanguinalis; settings: visual scoring after about 3 weeks vs untreated controls, 100% = plants have died, 0% = like control plants
In short: as §1

ECHCG [3] = experiment: Pre-emergence action against ECHCG, 1280 g/ha; assay type: in vivo, Echinochloa crus-galli; settings: visual scoring after about 3 weeks vs untreated controls, 100% = plants have died, 0% = like control plants
In short: as §1

LOLRI [4] = experiment: Pre-emergence action against LOLRI, 1280 g/ha; assay type: in vivo, Lolium rigidum; settings: visual scoring after about 3 weeks vs untreated controls, 100% = plants have died, 0% = like control plants
In short: as §1

POAAN [5] = experiment: Pre-emergence action against POAAN, 1280 g/ha; assay type: in vivo, Poa annua; settings: visual scoring after about 3 weeks vs untreated controls, 100% = plants have died, 0% = like control plants
In short: as §1

SETVI [6] = experiment: Pre-emergence action against SETVI, 1280 g/ha; assay type: in vivo, Setaria viridis; settings: visual scoring after about 3 weeks vs untreated controls, 100% = plants have died, 0% = like control plants
In short: as §1

AMARE [7] = experiment: Pre-emergence action against AMARE, 1280 g/ha; assay type: in vivo, Amaranthus retroflexus; settings: scored visually after about 3 weeks vs untreated controls (100% = plants have died)
In short: as §1

MATIN [8] = experiment: Pre-emergence action against MATIN, 1280 g/ha; assay type: in vivo, Tripleurospermum inodorum (Matricaria inodora); settings: scored visually after about 3 weeks vs untreated controls (100% = plants have died)
In short: as §1

STEME [9] = experiment: Pre-emergence action against STEME, 1280 g/ha; assay type: in vivo, Stellaria media; settings: scored visually after about 3 weeks vs untreated controls (100% = plants have died)
In short: as §1

VERPE [10] = experiment: Pre-emergence action against VERPE, 1280 g/ha; assay type: in vivo, Veronica persica; settings: scored visually after about 3 weeks vs untreated controls (100% = plants have died)
In short: as §1

ALOMY [11] = experiment: Post-emergence action against ALOMY, 1.28 kg/ha; assay type: in vivo, Alopecurus myosuroides; settings: dosage 1280 g/ha, visual rating about 3 weeks after treatment vs untreated controls
In short: (§2)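 Foliar application at the one-leaf stage: compound as WP or EC in water with 0.5% additive, sprayed at 600 L/ha. Plants are kept about 3 weeks in the greenhouse, then % herbicidal action is estimated visually (100% = death).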

DIGSA [12] = experiment: Post-emergence action against DIGSA, 1.28 kg/ha; assay type: in vivo, Digitaria sanguinalis; settings: dosage 1280 g/ha, visual rating about 3 weeks after treatment vs untreated controls
In short: as §2

ECHCG [13] = experiment: Post-emergence action against ECHCG, 1.28 kg/ha; assay type: in vivo, Echinochloa crus-galli; settings: dosage 1280 g/ha, visual rating about 3 weeks after treatment vs untreated controls
In short: as §2

LOLRI [14] = experiment: Post-emergence action against LOLRI, 1.28 kg/ha; assay type: in vivo, Lolium rigidum; settings: dosage 1280 g/ha, visual rating about 3 weeks after treatment vs untreated controls
Description: • a) Seeds of mono- and dicotyledonous weed plants are placed in plastic pots in sandy loam soil (twin sowing with one species each of mono- or dicotyledonous weed plants per pot), covered with soil and cultivated in a greenhouse under controlled growth conditions. 2 to 3 weeks after sowing, the test plants are treated at the one-leaf stage. The compounds of the invention, formulated in the form of wettable powders (WP) or as emulsion concentrates (EC), are applied to the green parts of the plants as aqueous suspension or emulsion with addition of 0.5% additive at a water application rate equivalent to 600 litres per hectare. After the test plants have been kept in the greenhouse under optimum growth conditions for about 3 weeks, the activity of the preparations is rated visually in comparison to untreated controls. For example, 100% activity=the plants have died, 0% activity=like control plants. As shown by the results, compounds of the general formula (I) of the invention, in post-emergence treatment, have very good herbicidal efficacy (90% to 100% herbicidal action) against harmful plants such as Abutilon theophrasti, Digitaria sanguinalis, Echinochloa crus-galli, Matricaria inodora, Poa annua, at an application rate of 1.28 kg of active substance per hectare.

POAAN [15] = experiment: Post-emergence action against POAAN, 1.28 kg/ha; assay type: in vivo, Poa annua; settings: dosage 1280 g/ha, visual rating about 3 weeks after treatment vs untreated controls
In short: as §2

SETVI [16] = experiment: Post-emergence action against SETVI, 1.28 kg/ha; assay type: in vivo, Setaria viridis; settings: dosage 1280 g/ha, visual rating about 3 weeks after treatment vs untreated controls
In short: as §2

ABUTH = experiment: Post-emergence action against ABUTH, 1.28 kg/ha; assay type: in vivo, Abutilon theophrasti; settings: dosage 1280 g/ha, visual rating about 3 weeks after treatment vs untreated controls (100% = plants died)
In short: as §2

AMARE [17] = experiment: Post-emergence action against AMARE, 1.28 kg/ha; assay type: in vivo, Amaranthus retroflexus; settings: dosage 1280 g/ha, visual rating about 3 weeks after treatment vs untreated controls (100% = plants died)
In short: as §2

MATIN [18] = experiment: Post-emergence action against MATIN, 1.28 kg/ha; assay type: in vivo, Tripleurospermum inodorum (Matricaria inodora); settings: dosage 1280 g/ha, visual rating about 3 weeks after treatment vs untreated controls (100% = plants died)
In short: as §2

STEME [19] = experiment: Post-emergence action against STEME, 1.28 kg/ha; assay type: in vivo, Stellaria media; settings: dosage 1280 g/ha, visual rating about 3 weeks after treatment vs untreated controls (100% = plants died)
In short: as §2

VERPE [20] = experiment: Post-emergence action against VERPE, 1.28 kg/ha; assay type: in vivo, Veronica persica; settings: dosage 1280 g/ha, visual rating about 3 weeks after treatment vs untreated controls (100% = plants died)
In short: as §2

ALOMY [21] = experiment: Pre-emergence action at 320 g/ha against ALOMY; assay type: in vivo, Alopecurus myosuroides; settings: scored visually after about 3 weeks vs untreated controls (100% = plants have died)
In short: (§3)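 Visual % scoring at about 3 weeks post-treatment against untreated pots (0% = like control, 100% = dead), greenhouse-grown. Compounds applied at 320 g/ha as aqueous WP/EC suspension or emulsion plus 0.5% additive, 600 l/ha water, onto covering soil of freshly sown pots before emergence.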

AVEFA = experiment: Pre-emergence action at 320 g/ha against AVEFA; assay type: in vivo; settings: visual scoring after about 3 weeks vs untreated controls
From the text: (§4) b) Seeds of monocotyledonous and dicotyledonous weed plants and crop plants are placed in plastic or organic planting pots and covered with soil. The compounds of the invention, formulated in the form of wettable powders (WP) or as emulsion concentrates (EC), are then applied onto the surface of the covering soil as aqueous suspension or emulsion with addition of 0.5% additive at a water application rate of 600 l/ha (converted). After the treatment, the pots are placed in a greenhouse and kept under good growth conditions for the trial plants. After about 3 weeks, the effect of the preparations is scored visually in comparison with untreated controls as percentages. For example, 100% activity=the plants have died, 0% activity=like control plants. Tables 13 to 26 below show the effects of selected compounds of the general formula (I) on various harmful plants and at an application rate corresponding to 320 g/ha, which were obtained by the experimental procedure mentioned above.

ECHGC = experiment: Pre-emergence action at 320 g/ha against ECHGC; assay type: in vivo, Echinochloa crus-galli; settings: visual scoring after about 3 weeks vs untreated controls
From the text: as §4

LOLRI [22] = experiment: Pre-emergence action at 320 g/ha against LOLRI; assay type: in vivo, Lolium rigidum; settings: visual scoring after about 3 weeks vs untreated controls
From the text: as §4

SETVI [23] = experiment: Pre-emergence action at 320 g/ha against SETVI; assay type: in vivo, Setaria viridis; settings: visual scoring after about 3 weeks vs untreated controls
From the text: as §4

AMARE [24] = experiment: Pre-emergence action at 320 g/ha against AMARE; assay type: in vivo, Amaranthus retroflexus; settings: visual scoring after about 3 weeks vs untreated controls
In short: as §3

MATIN [25] = experiment: Pre-emergence action at 320 g/ha against MATIN; assay type: in vivo, Tripleurospermum inodorum (Matricaria inodora); settings: visual scoring after about 3 weeks vs untreated controls
From the text: as §4

POLCO = experiment: Pre-emergence action at 320 g/ha against POLCO; assay type: in vivo, Fallopia convolvulus (Polygonum convolvulus); settings: visual scoring after about 3 weeks vs untreated controls
In short: as §3

VERPE [26] = experiment: Pre-emergence action at 320 g/ha against VERPE; assay type: in vivo, Veronica persica; settings: visual scoring after about 3 weeks vs untreated controls
From the text: as §4

VIOTR = experiment: Pre-emergence action at 320 g/ha against VIOTR; assay type: in vivo, Viola tricolor; settings: dosage 320 g/ha
In short: as §3

O=C(COc1nn(-c2ccccc2F)c(-c2ccc(F)nc2)c1Br)NO [Example X-023]
100%: Pre-emergence action against DIGSA (DIGSA [2]) | Pre-emergence action against ECHCG (ECHCG [3]) | Pre-emergence action against LOLRI (LOLRI [4]) | Pre-emergence action against POAAN (POAAN [5]) | Pre-emergence action against SETVI (SETVI [6]) | Pre-emergence action against AMARE (AMARE [7]) | Pre-emergence action against MATIN (MATIN [8]) | Pre-emergence action against STEME (STEME [9]) | Pre-emergence action against VERPE (VERPE [10]) | Post-emergence action against ALOMY (ALOMY [11]) | Post-emergence action against DIGSA (DIGSA [12]) | Post-emergence action against ECHCG (ECHCG [13]) | Post-emergence action against LOLRI (LOLRI [14]) | Post-emergence action against POAAN (POAAN [15]) | Post-emergence action against AMARE (AMARE [17]) | Post-emergence action against MATIN (MATIN [18]) | Post-emergence action against STEME (STEME [19]) | Post-emergence action against VERPE (VERPE [20])
90%: Pre-emergence action against ALOMY (ALOMY [1]) | Post-emergence action against SETVI (SETVI [16]) | Post-emergence action against ABUTH (ABUTH)

COC(=O)COc1nn(-c2ccccc2F)c(-c2ccc(F)nc2)c1I [VII-113]
100%: Pre-emergence action against LOLRI in % (LOLRI [22]) | Pre-emergence action against AMARE in % (AMARE [24]) | Pre-emergence action against VIOTR in % (VIOTR)
90%: Pre-emergence action at 320 g/ha against ALOMY in % (ALOMY [21]) | Pre-emergence action against AVEFA in % (AVEFA) | Pre-emergence action against ECHGC in % (ECHGC) | Pre-emergence action against SETVI in % (SETVI [23]) | Pre-emergence action against MATIN in % (MATIN [25]) | Pre-emergence action against POLCO in % (POLCO) | Pre-emergence action against VERPE in % (VERPE [26])

COC(=O)[C@@H](C)Oc1nn(-c2ccccc2)c(-c2cccnc2)c1Cl [VII-041]
80%: Pre-emergence action against AVEFA in % (AVEFA) | Pre-emergence action against ECHGC in % (ECHGC) | Pre-emergence action against VIOTR in % (VIOTR)
100%: Pre-emergence action against AMARE in % (AMARE [24]) | Pre-emergence action against MATIN in % (MATIN [25]) | Pre-emergence action against VERPE in % (VERPE [26])
90%: Pre-emergence action at 320 g/ha against ALOMY in % (ALOMY [21]) | Pre-emergence action against LOLRI in % (LOLRI [22])
